The source made the active and inactive calls.
Tests used:
[1] = target: T1, RNA-binding protein pos-1 (Caenorhabditis elegans, UniProt G5EF15); assay: disruptors of C. elegans POS-1 RNA interaction – biochemical, fluorescence polarization, dose response (AID 1964);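 note: purified POS-1 fused to maltose binding protein made in E. coli; potency of compounds blocking POS-1 binding to fluorescent RNA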
T1 sequence (G5EF15 whole entry): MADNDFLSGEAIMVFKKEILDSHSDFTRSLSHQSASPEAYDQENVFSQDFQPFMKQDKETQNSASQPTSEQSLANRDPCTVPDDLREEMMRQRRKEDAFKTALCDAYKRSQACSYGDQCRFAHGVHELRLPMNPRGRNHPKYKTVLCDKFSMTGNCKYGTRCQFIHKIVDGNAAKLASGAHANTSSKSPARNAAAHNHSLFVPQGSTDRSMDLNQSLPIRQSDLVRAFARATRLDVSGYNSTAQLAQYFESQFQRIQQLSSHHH

[2] = Luminescence Cell-Based Dose Confirmation HTS to Identify Activators of 5'UTR Stem-Loop Driven Alpha-Synuclein mRNA Translation in H4 Neuroglioblastoma Cells. [Related pubchem assays: 1829 (Project Summary), 1814 (Primary HTS)]; assay type: functional
[3] = Luminescence Cell-Based Dose Response HTS to Identify Activators of Luciferase Translation or Activity in H4 […] Cells. [Related pubchem assays: 1829 (Project Summary), 1814 (Primary HTS)]; assay type: functional
[4] = system: H4; assay: Luminescence Cell-Based Dose Response HTS to Identify Activators of 5'UTR Stem-Loop Driven Prion Protein mRNA Translation in H4 Neuroglioblastoma Cells. [Related pubchem assays: 1829 (Project Summary), 1814 (Primary HTS)]; assay type: functional; conditions: Homo sapiens
[5] = target: T2, Zinc finger protein mex-5 (Caenorhabditis elegans, UniProt Q9XUB2); assay: potency of MEX-5 RNA-binding blockers – biochemical, C. elegans, fluorescence polarization, dose response (AID 1960)
T2 sequence (Q9XUB2 whole entry): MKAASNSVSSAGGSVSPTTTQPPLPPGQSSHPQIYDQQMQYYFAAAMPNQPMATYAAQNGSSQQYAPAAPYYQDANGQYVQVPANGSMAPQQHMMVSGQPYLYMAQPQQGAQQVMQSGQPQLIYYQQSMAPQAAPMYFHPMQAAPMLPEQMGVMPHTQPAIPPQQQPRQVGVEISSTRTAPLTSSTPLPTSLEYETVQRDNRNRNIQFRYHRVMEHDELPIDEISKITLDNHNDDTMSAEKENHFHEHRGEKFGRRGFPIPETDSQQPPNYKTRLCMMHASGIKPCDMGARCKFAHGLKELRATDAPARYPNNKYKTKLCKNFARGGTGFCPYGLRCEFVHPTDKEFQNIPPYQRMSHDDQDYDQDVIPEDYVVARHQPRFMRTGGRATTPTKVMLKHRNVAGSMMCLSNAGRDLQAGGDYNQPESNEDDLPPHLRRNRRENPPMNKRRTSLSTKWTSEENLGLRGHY

[6] = target: Heat shock protein HSP 90-alpha (Homo sapiens, UniProt P07900); assay: Luminescence-based dose response biochemical high throughput screening assay for inhibitors of the Heat Shock Protein 90 (HSP90). [Related pubchem assays: 1831 (Summary AID.), 1846 (Confirmation screen.), 1789 (Primary screen.)]
[7] = target: T3, Corticotropin-releasing factor receptor 2/Corticotropin-releasing factor-binding protein (Homo sapiens, UniProt P24387+Q13324); assay: activators of CRF receptor 2 with binding protein – uHTS hits, confirmation (AID 602473); assay type: functional; conditions: read-out: EC50_Mean
T3 sequence (Q13324 whole entry): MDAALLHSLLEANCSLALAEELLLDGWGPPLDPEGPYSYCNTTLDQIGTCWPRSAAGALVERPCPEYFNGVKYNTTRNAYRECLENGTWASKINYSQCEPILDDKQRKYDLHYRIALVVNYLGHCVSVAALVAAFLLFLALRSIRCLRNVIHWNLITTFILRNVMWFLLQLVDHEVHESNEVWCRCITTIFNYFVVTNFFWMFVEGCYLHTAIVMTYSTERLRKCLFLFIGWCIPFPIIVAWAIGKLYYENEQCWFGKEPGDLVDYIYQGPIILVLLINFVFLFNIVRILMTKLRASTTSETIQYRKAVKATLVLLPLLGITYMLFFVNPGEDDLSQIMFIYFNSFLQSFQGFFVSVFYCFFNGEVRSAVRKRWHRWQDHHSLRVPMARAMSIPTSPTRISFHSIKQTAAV
T3 sequence (P24387 whole entry): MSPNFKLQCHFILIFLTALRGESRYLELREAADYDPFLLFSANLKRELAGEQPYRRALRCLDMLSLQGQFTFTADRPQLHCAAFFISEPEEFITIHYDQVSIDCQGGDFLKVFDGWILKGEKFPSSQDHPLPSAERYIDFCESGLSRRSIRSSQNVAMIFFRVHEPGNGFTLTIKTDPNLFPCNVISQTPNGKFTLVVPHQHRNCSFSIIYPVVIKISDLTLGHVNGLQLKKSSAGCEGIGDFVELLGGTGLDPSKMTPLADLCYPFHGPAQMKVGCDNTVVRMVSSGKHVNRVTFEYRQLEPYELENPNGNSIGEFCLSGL

[8] = system: HEK293; assay: PMA/Ionomycin induced NF-kB luciferase assay in 293- NF-kB-Luc stable cells. [Related pubchem assays: 1299, 1270, 1295, 1375, 1287, 1281, 1293, 1291, 1289, 1280, 465, 1364, 1282, 1372, 1365, 1370, 1367, 1366, 1269, 1373, 1292, 1290, 1302, 1371, 1283, 1271, 1294, 1374, 1368, 1369 ]; assay type: functional, cell-based; conditions: Homo sapiens
[9] = target: Luciferin 4-monooxygenase (Photinus pyralis, UniProt P08659); assay: In vitro luciferase assay using purified luciferase. [Related pubchem assays: 1299, 1270, 1295, 1375, 1287, 1281, 1293, 1291, 1289, 1280, 465, 1364, 1282, 1372, 1365, 1370, 1367, 1366, 1266, 1373, 1292, 1290, 1302, 1371, 1283, 1271, 1294, 1374, 1368, 1369 ]
Chain of Luciferin 4-monooxygenase (P08659 whole entry): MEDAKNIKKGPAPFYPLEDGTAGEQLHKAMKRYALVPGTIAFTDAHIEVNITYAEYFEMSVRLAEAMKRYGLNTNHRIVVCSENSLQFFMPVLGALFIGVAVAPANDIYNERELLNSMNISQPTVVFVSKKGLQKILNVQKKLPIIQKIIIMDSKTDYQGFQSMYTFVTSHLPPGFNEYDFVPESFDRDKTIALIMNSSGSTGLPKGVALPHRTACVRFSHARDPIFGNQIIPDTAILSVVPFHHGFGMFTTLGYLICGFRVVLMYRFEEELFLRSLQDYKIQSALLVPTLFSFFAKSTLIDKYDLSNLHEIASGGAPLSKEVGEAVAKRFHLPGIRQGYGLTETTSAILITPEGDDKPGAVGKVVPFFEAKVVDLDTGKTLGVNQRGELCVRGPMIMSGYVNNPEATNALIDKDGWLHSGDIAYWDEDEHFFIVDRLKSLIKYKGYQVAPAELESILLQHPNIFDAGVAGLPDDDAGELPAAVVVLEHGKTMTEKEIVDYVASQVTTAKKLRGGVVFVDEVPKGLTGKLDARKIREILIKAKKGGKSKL

[10] = system: HEK293; assay: Cytotoxicity assay in HEK293 cells. [Related pubchem assays (depositor defined):AID1266, AID1269, AID1270, AID1271, AID1280, AID1281, AID1282, AID1283, AID1287, AID1289, AID1290, AID1291, AID1292, AID1293, AID1294, AID1295, AID1299, AID1302, AID1364, AID1365, AID1366, AID1367, AID1369, AID1370, AID1371, AID1372, AID1373, AID1374, AID1375, AID1384 …; assay type: functional, cell-based; conditions: Homo sapiens
[11] = system: HEK293; assay: TNF Induced NF-kB Luciferase in 293-NF-kB-Luc Stable Cells. [Related pubchem assays: 1266, 1299, 1269, 1373, 1292, 1290, 1302, 1371, 1283, 1270, 1295, 1271, 1375, 1294, 1374, 1281, 1293, 1291, 1289, 1280, 465, 1368, 1364, 1282, 1372, 1365, 1369, 1370, 1367, 1366 ]; assay type: functional, cell-based; conditions: Homo sapiens
[12] = viability loss in Vero cells – cytotoxicity control for Vif-APOBEC3G degradation inhibitor project, dose response (AID 1117358); assay type: functional; conditions: Vero
[13] = target: T4, Protein skinhead-1 (Caenorhabditis elegans, UniProt P34707); assay type: functional
T4 sequence (P34707 whole entry): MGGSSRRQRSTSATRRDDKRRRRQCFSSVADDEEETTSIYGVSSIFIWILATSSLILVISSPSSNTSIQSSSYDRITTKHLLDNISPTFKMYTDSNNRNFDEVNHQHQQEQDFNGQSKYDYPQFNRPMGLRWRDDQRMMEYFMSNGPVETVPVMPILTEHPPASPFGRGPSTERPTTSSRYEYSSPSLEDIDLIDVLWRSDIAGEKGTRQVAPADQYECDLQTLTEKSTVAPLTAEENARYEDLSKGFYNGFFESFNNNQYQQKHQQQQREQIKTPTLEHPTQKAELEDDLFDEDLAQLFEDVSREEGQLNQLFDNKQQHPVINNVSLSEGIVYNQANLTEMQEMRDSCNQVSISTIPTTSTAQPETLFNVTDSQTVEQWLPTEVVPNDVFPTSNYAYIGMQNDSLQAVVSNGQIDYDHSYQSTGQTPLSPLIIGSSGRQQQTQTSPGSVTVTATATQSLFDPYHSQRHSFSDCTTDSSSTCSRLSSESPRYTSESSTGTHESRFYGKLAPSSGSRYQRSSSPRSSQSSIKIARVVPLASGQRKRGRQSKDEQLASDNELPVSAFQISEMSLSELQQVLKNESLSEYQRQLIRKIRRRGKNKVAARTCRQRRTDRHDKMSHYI

[14] = SELE mRNA upregulation in endothelial cells – cell-based, HUVEC, RT-qPCR, dry powder, orthogonal assay for E-selectin inducer project, confirmation (AID 1117270); assay type: functional

SMILES: Cc1ccc2oc(=O)c(/C=C(\O)c3cccs3)nc2c1
- EC50 [1]: 21.3 µM (inconclusive)
- EC50 [2]: 16.6 µM (active)
- EC50 [3]: 13.1 µM (active)
- EC50 [4]: 16.5 µM (active)
- EC50 [5]: 6.82 µM (inconclusive)
- IC50 [6]: 5.05 µM (active)
- EC50 [7]: 4.87 µM (active)

SMILES: Cc1ccc2[nH]c(=O)c(C(=O)/C=C/c3ccccc3Cl)c(-c3ccccc3)c2c1
- EC50 [8]: 1.17 µM (active)
- EC50 [9]: > 8 µM (not active)
- EC50 [10]: 5.72 µM (inactive)
- EC50 [11]: 2.6 µM (active)

SMILES: COc1cc2c(cc1NC(=O)CC1SC(N3CCCC3)=NC1=O)oc1ccccc12 (centres undefined)
- CC50 [12]: > 40 µM (active)

SMILES: Cc1cccc(NC(=O)NCc2ccc3c(c2)cc(C)n3C)c1
- IC50 [13]: > 100 µM (inactive)
- AC50 [14]: 0.306 µM (active)

— ChEMBL document CHEMBL1201862, “PubChem BioAssay data set” (2004)
